Patent US11395847B2, “Acylated GLP-1/GLP-2 dual agonists” (Zealand Pharma A/S, priority 2016, dated 2022)
Read-outs that look alike come from different tables or passages of the source. *1 amine or outer side, *2 acyl side, *3 side chain or, on linkers, in order; H or OH if unused. Where a SMILES comes first, the peptide text is derived from it. Side-chain parts run from the residue outwards. [ ]: non-standard residue; d: D form. The star is where a group is joined. C20 diacid = O=C(O)CCCCCCCCCCCCCCCCCCC(=O)*; γGlu = O=C(O)[C@H](CCC(=O)[*:2])N[*:1]; AEEA = NCCOCCOCC(=O)O; Aib = CC(C)(N)C(=O)O

Biological target: T1, human GLP-2 receptor (Homo sapiens, UniProt O95838, D470N)
T1 construct: expressed in transfected cells
T1 sequence (O95838 1-553 D470N): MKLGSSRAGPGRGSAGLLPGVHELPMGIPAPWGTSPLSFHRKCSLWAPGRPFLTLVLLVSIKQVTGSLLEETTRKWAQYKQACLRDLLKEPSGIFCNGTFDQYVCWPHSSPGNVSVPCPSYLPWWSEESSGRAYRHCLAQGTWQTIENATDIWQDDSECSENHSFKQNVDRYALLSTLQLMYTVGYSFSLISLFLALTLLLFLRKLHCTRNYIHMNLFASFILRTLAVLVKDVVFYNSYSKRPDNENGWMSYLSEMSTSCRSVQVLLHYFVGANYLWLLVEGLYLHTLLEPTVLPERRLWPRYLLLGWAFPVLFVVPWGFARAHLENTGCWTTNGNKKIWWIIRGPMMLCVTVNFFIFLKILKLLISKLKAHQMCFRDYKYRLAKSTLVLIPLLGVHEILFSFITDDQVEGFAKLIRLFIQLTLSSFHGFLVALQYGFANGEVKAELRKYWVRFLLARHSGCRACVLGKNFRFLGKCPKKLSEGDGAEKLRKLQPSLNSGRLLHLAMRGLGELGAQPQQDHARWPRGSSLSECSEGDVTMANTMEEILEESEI
Assay: GLP-2 receptor potency assay (cAMP ALPHASCREEN, HEK293 cells stably expressing GLP-2 R)
Format: cell-based
Source text: One useful in vitro assay for measuring GLP-1 and GLP-2 receptor activity is quantitation of cAMP, i.e. 3′-5′-cyclic adenosine monophosphate, which is a second messenger essential in many biological processes, and one of the most ubiquitous mechanisms for regulating cellular functions.
For subcloning into a mammalian expression vector, primers for subcloning were obtained from DNA-Technology, Risskov, Denmark. The 5′ and 3′ primers used for the PCR reaction include terminal restriction sites for cloning and the context of the 5′ primer is modified to a Kozak consensus without changing the sequence of the product encoded by the ORF. […] The generated PCR product was purified using GFX PCR and Gel band purification kit, digested with restriction enzymes and cloned into the mammalian expression vector using Rapid DNA Ligation Kit. Ligation reaction was transformed to XL10 Gold Ultracompetent cells and colonies were picked for DNA production using ENDOFREE® Plasmid maxi kit. Subsequent sequence analysis was conducted by MWG Eurofins, Germany.
HEK293 cells were transfected using the LIPOFECTAMINE® PLUS transfection method. The day before transfection, HEK293 cells were seeded in two T75 flasks at a density of 2×10^6 cells/T75 flask in cell culturing medium without antibiotics. On the day of transfection, cells were washed with 1× DPBS and medium was replaced with OPTI-MEM© to a volume of 5 mL/T75 flask before addition of LIPOFECTAMINE®-plasmid complexes were added gently and drop wise to the cells in T75 flasks and replaced with growth medium after 3 hours and again to growth medium supplemented with 500 μg/mL G418 after 24 hours. Following 4 weeks in G418 selection, clones were picked and tested in a functional GLP-2 receptor potency assay as described below.
The cAMP ALPHASCREEN® assay from Perkin Elmer was used to quantitate the cAMP response to activation of the GLP1 and GLP2 receptor, respectively. […] Data from test compounds eliciting an increase in the intracellular level of cAMP were normalized relative to the positive and negative control (vehicle) to calculate the EC50 and maximal response from the concentration response curve.

[1] = cAMP response, HEK293 cells expressing human GLP-2 R, read-out: EC50 GLP-2

Structure (SMILES)	EC50 [nM]	EC50 [1] [nM]
CC[C@H](C)[C@H](NC(=O)[C@H](Cc1ccccc1)NC(=O)[C@H](CC(=O)O)NC(=O)[C@H](CCCNC(=N)N)NC(=O)[C@H](C)NC(=O)[C@H](C)NC(=O)[C@H](CCCCN)NC(=O)[C@H](CCCCNC(=O)CC[C@H](NC(=O)CCCCCCCCCCCCCCCCC(=O)O)C(=O)O)NC(=O)[C@H](CC(=O)O)NC(=O)[C@H](CC(C)C)NC(=O)[C@@H](NC(=O)[C@@H](NC(=O)[C@H](C)NC(=O)[C@H](CC(C)C)NC(=O)[C@H](CCC(=O)O)NC(=O)[C@H](CO)NC(=O)[C@H](CO)NC(=O)[C@H](Cc1ccccc1)NC(=O)[C@@H](NC(=O)CNC(=O)[C@H](CCC(=O)O)NC(=O)C(C)(C)NC(=O)[C@@H](N)Cc1c[nH]cn1)[C@@H](C)O)[C@@H](C)O)[C@@H](C)CC)C(=O)N[C@@H](C)C(=O)N[C@@H](Cc1c[nH]c2ccccc12)C(=O)N[C@@H](CC(C)C)C(=O)N[C@H](C(=O)N[C@@H](CCC(=O)O)C(=O)N[C@@H](Cc1c[nH]cn1)C(=O)N[C@@H](CCCCN)C(=O)N[C@H](C(=O)N[C@H](C(=O)N[C@@H](CC(=O)O)C(=O)O)[C@@H](C)O)[C@@H](C)CC)[C@@H](C)CC [Compound 4] (HELM PEPTIDE1{H.[Aib].E.G.T.F.S.S.E.L.A.T.I.L.D.K.K.A.A.R.D.F.I.A.W.L.I.E.H.K.I.T.D}|PEPTIDE2{[O=C(O)CCCCCCCCCCCCCCCCC(=O)[*:2]].[gGlu]}$PEPTIDE1,PEPTIDE2,16:R3-2:R2$$$V2.0)	0.087	–
CC[C@H](C)[C@H](NC(=O)[C@H](Cc1ccccc1)NC(=O)[C@H](CC(=O)O)NC(=O)[C@H](CCCNC(=N)N)NC(=O)[C@H](C)NC(=O)[C@H](C)NC(=O)[C@H](CCCCN)NC(=O)[C@H](CCCCNC(=O)COCCOCCNC(=O)[C@H](CCCCN)NC(=O)[C@H](CCC(=O)O)NC(=O)[C@H](CCCCN)NC(=O)CC[C@H](NC(=O)CCCCCCCCCCCCCCCCCCC(=O)O)C(=O)O)NC(=O)[C@H](CC(=O)O)NC(=O)[C@H](CC(C)C)NC(=O)[C@@H](NC(=O)[C@@H](NC(=O)[C@H](C)NC(=O)[C@H](CC(C)C)NC(=O)[C@H](CCC(=O)O)NC(=O)[C@H](CO)NC(=O)[C@@H](NC(=O)[C@H](Cc1ccccc1)NC(=O)[C@H](CO)NC(=O)CNC(=O)[C@H](CCC(=O)O)NC(=O)C(C)(C)NC(=O)[C@@H](N)Cc1c[nH]cn1)[C@@H](C)O)[C@@H](C)O)[C@@H](C)CC)C(=O)N[C@@H](C)C(=O)N[C@@H](Cc1c[nH]c2ccccc12)C(=O)N[C@@H](CC(C)C)C(=O)N[C@H](C(=O)N[C@@H](CCC(=O)O)C(=O)N[C@@H](Cc1c[nH]cn1)C(=O)N[C@@H](CCCCN)C(=O)N[C@H](C(=O)N[C@H](C(=O)N[C@@H](CC(=O)O)C(=O)O)[C@@H](C)O)[C@@H](C)CC)[C@@H](C)CC [Compound 59] (HELM PEPTIDE1{H.[Aib].E.G.S.F.T.S.E.L.A.T.I.L.D.K.K.A.A.R.D.F.I.A.W.L.I.E.H.K.I.T.D}|PEPTIDE2{[O=C(O)CCCCCCCCCCCCCCCCCCC(=O)[*:2]].[gGlu].K.E.K.[O=C(COCCOCCN[*:1])[*:2]]}$PEPTIDE1,PEPTIDE2,16:R3-6:R2$$$V2.0)	–	0.11
CC[C@H](C)[C@H](NC(=O)[C@H](Cc1ccccc1)NC(=O)[C@H](CC(=O)O)NC(=O)[C@H](CCCNC(=N)N)NC(=O)[C@H](C)NC(=O)[C@H](C)NC(=O)[C@H](CC(C)C)NC(=O)[C@H](CCCCNC(=O)CC[C@H](NC(=O)CCCCCCCCCCCCCCCCC(=O)O)C(=O)O)NC(=O)[C@H](CC(=O)O)NC(=O)[C@H](CC(C)C)NC(=O)[C@@H](NC(=O)[C@@H](NC(=O)[C@H](C)NC(=O)[C@H](CC(C)C)NC(=O)[C@H](CCC(=O)O)NC(=O)[C@H](CO)NC(=O)[C@@H](NC(=O)[C@H](Cc1ccccc1)NC(=O)[C@@H](NC(=O)CNC(=O)[C@H](CCC(=O)O)NC(=O)C(C)(C)NC(=O)[C@@H](N)Cc1c[nH]cn1)[C@@H](C)O)[C@@H](C)O)[C@@H](C)O)[C@@H](C)CC)C(=O)N[C@@H](C)C(=O)N[C@@H](Cc1c[nH]c2ccccc12)C(=O)N[C@@H](CC(C)C)C(=O)N[C@H](C(=O)N[C@@H](CCC(=O)O)C(=O)N[C@@H](Cc1c[nH]cn1)C(=O)N[C@@H](CCCCN)C(=O)N[C@H](C(=O)N[C@H](C(=O)N[C@@H](CC(=O)O)C(=O)O)[C@@H](C)O)[C@@H](C)CC)[C@@H](C)CC [Compound 12] (HELM PEPTIDE1{H.[Aib].E.G.T.F.T.S.E.L.A.T.I.L.D.K.L.A.A.R.D.F.I.A.W.L.I.E.H.K.I.T.D}|PEPTIDE2{[O=C(O)CCCCCCCCCCCCCCCCC(=O)[*:2]].[gGlu]}$PEPTIDE1,PEPTIDE2,16:R3-2:R2$$$V2.0)	–	0.11
CC[C@H](C)[C@H](NC(=O)[C@H](Cc1ccccc1)NC(=O)[C@H](CC(=O)O)NC(=O)[C@H](CCCCNC(=O)COCCOCCNC(=O)COCCOCCNC(=O)[C@H](CCCCN)NC(=O)[C@H](CCC(=O)O)NC(=O)[C@H](CCCCN)NC(=O)CC[C@H](NC(=O)CCCCCCCCCCCCCCCCCCC(=O)O)C(=O)O)NC(=O)[C@H](C)NC(=O)[C@H](C)NC(=O)[C@H](CCC(N)=O)NC(=O)[C@H](CCC(=O)O)NC(=O)[C@H](CC(=O)O)NC(=O)[C@H](CC(C)C)NC(=O)[C@@H](NC(=O)[C@@H](NC(=O)[C@H](C)NC(=O)[C@H](CC(C)C)NC(=O)[C@H](CCC(=O)O)NC(=O)[C@H](CO)NC(=O)[C@@H](NC(=O)[C@H](Cc1ccccc1)NC(=O)[C@H](CO)NC(=O)CNC(=O)[C@H](CCC(=O)O)NC(=O)C(C)(C)NC(=O)[C@@H](N)Cc1c[nH]cn1)[C@@H](C)O)[C@@H](C)O)[C@@H](C)CC)C(=O)N[C@@H](C)C(=O)N[C@@H](Cc1c[nH]c2ccccc12)C(=O)N[C@@H](CC(C)C)C(=O)N[C@H](C(=O)N[C@@H](CCC(=O)O)C(=O)N[C@@H](Cc1c[nH]cn1)C(=O)N[C@@H](CCCCN)C(=O)N[C@H](C(=O)N[C@H](C(=O)N[C@@H](CC(=O)O)C(=O)O)[C@@H](C)O)[C@@H](C)CC)[C@@H](C)CC [Compound 66] (H-H[Aib]EGSFTSELATILDEQAAK([AEEA-AEEA-Lys-Glu-Lys-γGlu-C20 diacid])DFIAWLIEHKITD-OH)	–	0.18
CC[C@H](C)[C@H](NC(=O)[C@H](Cc1ccccc1)NC(=O)[C@H](CC(=O)O)NC(=O)[C@H](CCCNC(=N)N)NC(=O)[C@H](C)NC(=O)[C@H](C)NC(=O)[C@H](CCCCN)NC(=O)[C@H](CCCCNC(=O)COCCOCCNC(=O)COCCOCCNC(=O)CC[C@H](NC(=O)CCCCCCCCCCCCCCCCCCC(=O)O)C(=O)O)NC(=O)[C@H](CC(=O)O)NC(=O)[C@H](CC(C)C)NC(=O)[C@@H](NC(=O)[C@@H](NC(=O)[C@H](C)NC(=O)[C@H](CC(C)C)NC(=O)[C@H](CCC(=O)O)NC(=O)[C@H](CO)NC(=O)[C@@H](NC(=O)[C@H](Cc1ccccc1)NC(=O)[C@H](CO)NC(=O)CNC(=O)[C@H](CCC(=O)O)NC(=O)C(C)(C)NC(=O)[C@@H](N)Cc1c[nH]cn1)[C@@H](C)O)[C@@H](C)O)[C@@H](C)CC)C(=O)N[C@@H](C)C(=O)N[C@@H](Cc1c[nH]c2ccccc12)C(=O)N[C@@H](CC(C)C)C(=O)N[C@H](C(=O)N[C@@H](CCC(=O)O)C(=O)N[C@@H](Cc1c[nH]cn1)C(=O)N[C@@H](CCCCN)C(=O)N[C@H](C(=O)N[C@H](C(=O)N[C@@H](CC(=O)O)C(=O)O)[C@@H](C)O)[C@@H](C)CC)[C@@H](C)CC [Compound 43] (H-H[Aib]EGSFTSELATILDK([AEEA-AEEA-γGlu-C20 diacid])KAARDFIAWLIEHKITD-OH)	–	0.15
